Earlier results, collected in publication PMC3834896.

assay: not told; conditions: not given

Going from `CCCCCCCCN1CCCCC1=O` to `CCCCCCCCN1CCCC1=O`, the “log partition n-octanol / PBS or water” value falls from 3.4 log10 to 3.0 log10.

Compared with `CCCCN1CCCCC1=O`, `CCCCN1CCCC1=O` is lower in “log partition n-octanol / PBS or water” value: 1.4 log10 for the first, 1.02 log10 for the second.

Going from `CCCCCCN1CCCC1=O` to `CCCCCCN1CCCCC1=O`, the “log partition n-octanol / PBS or water” value rises from 2.1 log10 to 2.6 log10.

First: CCCCCCCCCCCCN1CCCC1=O
Second: CCCCCCCCCCN1CCCC1=O
The “log partition n-octanol / PBS or water” value of the first is higher: 4.9 log10 for the first, 4.1 log10 for the second.

same assay, conditions: not told

Compared with `CCCCN1CCCCCC1=O`, `CCCCCCN1CCCCCC1=O` is higher in “log partition n-octanol / PBS or water” value: 1.8 log10 for the first, 2.9 log10 for the second.

Going from `CCCCCC(=O)N(C)C` to `CCCCCCC(=O)N(C)C`, the “log partition n-octanol / PBS or water” value rises from 1.4 log10 to 1.9 log10.

Going from `CCCCCCCC(=O)N(C)C` to `CCCCCCCCC(=O)N(C)C`, the “log partition n-octanol / PBS or water” value falls from 2.6 log10 to 1.9 log10.

Going from `CCCCCCCCN1CCCCCC1=O` to `CCCCCCCCCCCCN1CCCCCC1=O`, the “log partition n-octanol / PBS or water” value rises from 4.0 log10 to 6.3 log10.

In the case of `CCCCCCCCCC(=O)N1CC(O)CC1C(=O)NCC` (centres unmarked), the “log partition n-octanol / PBS or water” value is given as 2.9 log10.
